Experimental data published in ChEMBL document CHEMBL4507295 (2021).

Legend:
[1] = target: 5-hydroxytryptamine receptor 1E (Homo sapiens) (UniProt P28566); details: Compound concentration 10.0 uM
[2] = target: 5-hydroxytryptamine receptor 7 (Homo sapiens, UniProt P34969); test: GPCRScan assay: inhibition of 5-HT7A; design: radioligand conc. used [nm] 5.0 – 6.0, parental cells Stable HEK
[3] = species: Rattus norvegicus; test: Testosterone Eurofins-Panlabs radioligand binding assay; design: ligand concentration 1.5 nM; details: Compound concentration 10.0 uM
[4] = target: Voltage-dependent N-type calcium channel subunit alpha-1B (Homo sapiens) (UniProt Q00975); test: Inhibition of Calcium Channel N-Type at 10 µM in the Eurofins-Panlabs radioligand binding assay (Eurofins_assay_216000); details: Rattus norvegicus; Compound concentration 10.0 uM
[5] = target: Glutamate receptor ionotropic, kainate (Rattus norvegicus) (UniProt P22756+Q01812+P42260+P42264+Q63273); test: Inhibition of Glutamate, Kainate at 10 µM in the Eurofins-Panlabs radioligand binding assay (Eurofins_assay_232700); details: Compound concentration 10.0 uM
[6] = species: Rattus norvegicus; test: Inhibition of Glutamate, NMDA, Phencyclidine at 10 µM in the Eurofins-Panlabs radioligand binding assay (Eurofins_assay_233000); format: protein-complex assay; details: Compound concentration 10.0 uM
[7] = target: Platelet-activating factor receptor (Homo sapiens) (UniProt P25105); test: Inhibition of Platelet Activating Factor (PAF) at 10 µM in the Eurofins-Panlabs radioligand binding assay (Eurofins_assay_265010); details: Compound concentration 10.0 uM
[8] = target: monoamine oxidase MAO-A (Homo sapiens, UniProt P21397); test: Inhibition of Monoamine Oxidase MAO-A at compound concentration of 10.0 uM in the Eurofins-Panlabs enzyme assay (Eurofins_assay_140010); design: substrate with concentration 50 uM Kynuramine, incubation time 60 min, incubation temperature 37 C; details: recombinant human MAO-A expressed in insect Hi5 cells, probe kynuramine (50 uM), compound concentration 10 uM
[9] = target: Calcitonin receptor (Homo sapiens) (UniProt P30988); test: Inhibition of Calcitonin at 10 µM in the Eurofins-Panlabs radioligand binding assay (Eurofins_assay_213610); details: Compound concentration 10.0 uM
[10] = target: Melanocortin receptor 3 (Homo sapiens) (UniProt P41968); test: Inhibition of Melanocortin MC3 at 10 µM in the Eurofins-Panlabs radioligand binding assay (Eurofins_assay_251300); design: ligand concentration 0.035 nM; details: Compound concentration 10.0 uM
[11] = target: Substance-K receptor (Homo sapiens) (UniProt P21452); test: Inhibition of Tachykinin NK2 at 10 µM in the Eurofins-Panlabs radioligand binding assay (Eurofins_assay_255600); design: ligand concentration 0.5 nM; details: Compound concentration 10.0 uM
[12] = target: Caspase-3 (Homo sapiens) (UniProt P42574); test: Peptidase, CASP3 (Caspase 3) Eurofins-Panlabs enzyme assay; details: Compound concentration 10.0 uM
[13] = species: Rattus norvegicus; test: Protein Serine/Threonine Kinase, PKC, Non-Selective Eurofins-Panlabs enzyme assay; details: Compound concentration 10.0 uM
[14] = target: Polyunsaturated fatty acid lipoxygenase ALOX12 (Homo sapiens) (UniProt P18054); test: Lipoxygenase 12-LO Eurofins-Panlabs enzyme assay; design: substrate with concentration; details: Compound concentration 10.0 uM
[15] = target: Polyunsaturated fatty acid 5-lipoxygenase (Homo sapiens) (UniProt P09917); test: Lipoxygenase 5-LO Eurofins-Panlabs enzyme assay; details: Compound concentration 10.0 uM
[16] = target: Caspase-7 (Homo sapiens) (UniProt P55210); test: Peptidase, CASP7 (Caspase 7) Eurofins-Panlabs enzyme assay; details: Compound concentration 10.0 uM
[17] = target: Endothelin-converting enzyme 1 (Homo sapiens) (UniProt P42892); test: Peptidase, Endothelin Converting Enzyme-1 (ECE-1) Eurofins-Panlabs enzyme assay; details: Compound concentration 10.0 uM
[18] = target: Macrophage metalloelastase (Homo sapiens) (UniProt P39900); test: Peptidase, Matrix Metalloproteinase-12 (MMP-12) Eurofins-Panlabs enzyme assay; details: Compound concentration 10.0 uM
[19] = target: Phosphodiesterase PDE1 (Bos taurus) (UniProt Q01061+P14100+A0A3Q1MCV4); test: Phosphodiesterase PDE1 Eurofins-Panlabs enzyme assay; format: protein assay; design: substrate with concentration [3H] cAMP + cAMP, incubation time 20 min, incubation temperature 25 °C; details: Compound concentration 100.0 uM
[20] = target: Protein kinase C alpha type (Homo sapiens, UniProt P17252); test: Inhibition of Protein Serine/Threonine Kinase, PRKCA (PKCα) at 10 µM in the Eurofins-Panlabs enzyme assay (Eurofins_assay_180010); design: substrate with concentration Histone, incubation time 10 min, incubation temperature 25 °C
[21] = species: Rattus norvegicus; test: Adrenergic α1, Non-selective Eurofins-Panlabs radioligand binding assay; format: protein assay; details: Compound concentration 10.0 uM
[22] = target: Cannabinoid receptor 1 (Homo sapiens) (UniProt P21554); test: Cannabinoid CB1 Eurofins-Panlabs radioligand binding assay; details: Compound concentration 10.0 uM
[23] = target: T1, D(4) dopamine receptor (Homo sapiens) (UniProt P21917); test: Dopamine D4.4 Eurofins-Panlabs radioligand binding assay; design: ligand concentration 1.2 nM; details: Compound concentration 10.0 uM
T1 sequence (whole entry): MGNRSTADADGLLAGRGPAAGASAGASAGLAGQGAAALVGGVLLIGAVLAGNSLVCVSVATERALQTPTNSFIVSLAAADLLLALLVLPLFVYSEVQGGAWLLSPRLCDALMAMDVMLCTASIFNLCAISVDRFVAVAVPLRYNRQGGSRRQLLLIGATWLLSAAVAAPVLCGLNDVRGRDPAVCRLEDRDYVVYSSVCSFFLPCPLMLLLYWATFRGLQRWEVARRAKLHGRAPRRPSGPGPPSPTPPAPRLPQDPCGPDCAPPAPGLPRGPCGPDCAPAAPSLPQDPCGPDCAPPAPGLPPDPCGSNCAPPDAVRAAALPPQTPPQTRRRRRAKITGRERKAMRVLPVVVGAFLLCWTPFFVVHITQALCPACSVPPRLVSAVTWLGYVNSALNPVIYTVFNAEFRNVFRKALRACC

[24] = target: Somatostatin receptor type 5 (Homo sapiens) (UniProt P35346); test: Somatostatin sst5 Eurofins-Panlabs radioligand binding assay; details: Compound concentration 10.0 uM
[25] = target: Sodium-dependent serotonin transporter (Homo sapiens) (UniProt P31645); test: Transporter, Serotonin (5- Hydroxytryptamine) (SERT) Eurofins-Panlabs radioligand binding assay; design: ligand concentration 0.15 nM, non-specific ligand with concentration 10 µM Imipramine, incubation time 3 h, incubation temperature 4 °C; details: Compound concentration 10.0 uM
[26] = target: D(3) dopamine receptor (Homo sapiens) (UniProt P35462); details: Compound concentration 10.0 uM
[27] = target: D(1B) dopamine receptor (Homo sapiens) (UniProt P21918); details: Compound concentration 10.0 uM
[28] = target: Muscarinic acetylcholine receptor M2 (Homo sapiens) (UniProt P08172); details: Compound concentration 10.0 uM
[29] = target: Alpha-1D adrenergic receptor (Homo sapiens) (UniProt P25100); details: Compound concentration 10.0 uM
[30] = target: Adenosine receptor A2a (Homo sapiens) (UniProt P29274); details: Compound concentration 10.0 uM
[31] = target: Beta-1 adrenergic receptor (Homo sapiens) (UniProt P08588); details: Compound concentration 10.0 uM
[32] = target: 5-hydroxytryptamine receptor 2B (Homo sapiens) (UniProt P41595); details: Compound concentration 10.0 uM
[33] = target: Sodium-dependent noradrenaline transporter (Homo sapiens) (UniProt P23975); details: Compound concentration 10.0 uM
[34] = target: Beta-3 adrenergic receptor (Homo sapiens) (UniProt P13945); details: Compound concentration 10.0 uM
[35] = target: Insulin receptor (Homo sapiens) (UniProt P06213); details: Rattus norvegicus; Compound concentration 10.0 uM
[36] = target: Cannabinoid receptor 2 (Homo sapiens) (UniProt P34972); details: Compound concentration 10.0 uM

Adenosine receptor A2a (Homo sapiens), sequence (P29274 whole entry): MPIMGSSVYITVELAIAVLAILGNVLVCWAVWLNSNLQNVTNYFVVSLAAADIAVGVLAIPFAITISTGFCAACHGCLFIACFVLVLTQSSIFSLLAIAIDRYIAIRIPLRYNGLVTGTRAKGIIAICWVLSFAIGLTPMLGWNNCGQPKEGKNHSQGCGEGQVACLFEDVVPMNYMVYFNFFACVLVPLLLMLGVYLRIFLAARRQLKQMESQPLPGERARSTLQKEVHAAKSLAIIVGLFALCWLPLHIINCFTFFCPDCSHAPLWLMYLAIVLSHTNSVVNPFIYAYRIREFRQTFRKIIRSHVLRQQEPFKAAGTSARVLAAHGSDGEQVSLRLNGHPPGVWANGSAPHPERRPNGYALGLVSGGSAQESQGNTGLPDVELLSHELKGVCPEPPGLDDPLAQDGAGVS
Voltage-dependent N-type calcium channel subunit alpha-1B (Homo sapiens), sequence (Q00975 whole entry, looked up): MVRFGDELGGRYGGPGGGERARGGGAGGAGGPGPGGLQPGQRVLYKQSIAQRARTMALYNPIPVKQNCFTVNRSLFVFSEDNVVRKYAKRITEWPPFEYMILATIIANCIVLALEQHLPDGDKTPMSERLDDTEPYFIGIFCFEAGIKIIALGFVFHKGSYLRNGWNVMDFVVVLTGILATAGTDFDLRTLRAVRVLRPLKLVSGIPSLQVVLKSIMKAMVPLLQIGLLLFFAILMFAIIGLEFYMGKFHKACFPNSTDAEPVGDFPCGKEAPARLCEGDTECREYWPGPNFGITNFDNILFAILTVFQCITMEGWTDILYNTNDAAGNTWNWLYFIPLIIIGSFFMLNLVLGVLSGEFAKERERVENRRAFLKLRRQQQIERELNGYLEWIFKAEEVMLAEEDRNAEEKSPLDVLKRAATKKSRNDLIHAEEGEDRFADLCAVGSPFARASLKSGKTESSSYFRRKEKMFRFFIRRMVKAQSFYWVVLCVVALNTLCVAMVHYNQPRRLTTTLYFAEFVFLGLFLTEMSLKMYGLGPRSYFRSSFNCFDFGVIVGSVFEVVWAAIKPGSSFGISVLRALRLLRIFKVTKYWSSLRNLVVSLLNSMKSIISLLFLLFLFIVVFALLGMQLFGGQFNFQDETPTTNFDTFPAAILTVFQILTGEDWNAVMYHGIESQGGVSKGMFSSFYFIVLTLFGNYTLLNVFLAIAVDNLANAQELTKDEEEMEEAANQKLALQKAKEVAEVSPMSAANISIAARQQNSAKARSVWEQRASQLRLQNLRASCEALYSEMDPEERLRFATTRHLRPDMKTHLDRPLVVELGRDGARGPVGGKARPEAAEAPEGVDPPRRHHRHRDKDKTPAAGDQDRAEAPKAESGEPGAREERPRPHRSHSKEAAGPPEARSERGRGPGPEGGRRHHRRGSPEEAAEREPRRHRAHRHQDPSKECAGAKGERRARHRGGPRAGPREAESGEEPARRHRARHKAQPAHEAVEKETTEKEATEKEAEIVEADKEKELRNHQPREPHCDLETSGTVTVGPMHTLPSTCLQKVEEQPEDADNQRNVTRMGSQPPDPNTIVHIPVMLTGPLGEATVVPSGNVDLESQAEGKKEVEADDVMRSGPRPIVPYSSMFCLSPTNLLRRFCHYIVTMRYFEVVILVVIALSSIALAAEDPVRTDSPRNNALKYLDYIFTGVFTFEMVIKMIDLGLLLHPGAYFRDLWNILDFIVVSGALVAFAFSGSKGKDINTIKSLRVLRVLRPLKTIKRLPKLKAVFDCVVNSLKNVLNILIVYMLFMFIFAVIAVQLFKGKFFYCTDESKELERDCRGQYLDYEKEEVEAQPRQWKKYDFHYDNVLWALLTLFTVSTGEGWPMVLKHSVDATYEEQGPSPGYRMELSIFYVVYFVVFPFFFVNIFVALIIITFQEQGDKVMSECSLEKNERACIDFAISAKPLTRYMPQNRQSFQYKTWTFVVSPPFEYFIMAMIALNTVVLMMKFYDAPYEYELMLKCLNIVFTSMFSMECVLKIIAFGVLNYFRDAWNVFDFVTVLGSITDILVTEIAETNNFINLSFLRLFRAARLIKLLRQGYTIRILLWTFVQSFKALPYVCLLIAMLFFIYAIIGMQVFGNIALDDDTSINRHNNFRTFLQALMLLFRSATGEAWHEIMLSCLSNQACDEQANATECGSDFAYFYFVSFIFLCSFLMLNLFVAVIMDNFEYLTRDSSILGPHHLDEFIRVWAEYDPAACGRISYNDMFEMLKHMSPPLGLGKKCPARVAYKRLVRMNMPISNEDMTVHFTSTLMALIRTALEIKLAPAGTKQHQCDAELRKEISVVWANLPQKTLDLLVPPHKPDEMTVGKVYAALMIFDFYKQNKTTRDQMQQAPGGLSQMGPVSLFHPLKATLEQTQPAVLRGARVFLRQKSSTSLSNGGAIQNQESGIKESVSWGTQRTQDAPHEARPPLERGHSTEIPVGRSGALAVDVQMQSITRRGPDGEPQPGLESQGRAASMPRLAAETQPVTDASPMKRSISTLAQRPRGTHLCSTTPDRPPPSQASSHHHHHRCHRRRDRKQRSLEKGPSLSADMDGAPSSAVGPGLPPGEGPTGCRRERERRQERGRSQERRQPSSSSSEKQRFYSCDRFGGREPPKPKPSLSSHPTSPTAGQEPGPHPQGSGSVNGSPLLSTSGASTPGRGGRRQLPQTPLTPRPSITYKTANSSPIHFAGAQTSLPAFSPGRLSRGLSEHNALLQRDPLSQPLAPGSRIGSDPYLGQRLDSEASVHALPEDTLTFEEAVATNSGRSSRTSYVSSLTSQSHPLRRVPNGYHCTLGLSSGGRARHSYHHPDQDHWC
5-hydroxytryptamine receptor 1E (Homo sapiens), sequence (P28566 whole entry): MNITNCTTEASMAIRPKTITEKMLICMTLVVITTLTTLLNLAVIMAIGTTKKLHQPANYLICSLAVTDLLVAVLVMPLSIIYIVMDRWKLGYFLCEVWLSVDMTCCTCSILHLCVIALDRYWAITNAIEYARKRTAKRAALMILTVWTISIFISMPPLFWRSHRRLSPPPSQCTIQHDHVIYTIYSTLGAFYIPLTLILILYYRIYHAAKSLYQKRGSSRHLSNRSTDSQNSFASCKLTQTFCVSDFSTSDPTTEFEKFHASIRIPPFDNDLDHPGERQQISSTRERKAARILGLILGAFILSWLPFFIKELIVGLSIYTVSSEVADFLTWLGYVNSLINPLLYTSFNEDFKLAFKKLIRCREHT
Beta-1 adrenergic receptor (Homo sapiens), sequence (P08588 whole entry, looked up): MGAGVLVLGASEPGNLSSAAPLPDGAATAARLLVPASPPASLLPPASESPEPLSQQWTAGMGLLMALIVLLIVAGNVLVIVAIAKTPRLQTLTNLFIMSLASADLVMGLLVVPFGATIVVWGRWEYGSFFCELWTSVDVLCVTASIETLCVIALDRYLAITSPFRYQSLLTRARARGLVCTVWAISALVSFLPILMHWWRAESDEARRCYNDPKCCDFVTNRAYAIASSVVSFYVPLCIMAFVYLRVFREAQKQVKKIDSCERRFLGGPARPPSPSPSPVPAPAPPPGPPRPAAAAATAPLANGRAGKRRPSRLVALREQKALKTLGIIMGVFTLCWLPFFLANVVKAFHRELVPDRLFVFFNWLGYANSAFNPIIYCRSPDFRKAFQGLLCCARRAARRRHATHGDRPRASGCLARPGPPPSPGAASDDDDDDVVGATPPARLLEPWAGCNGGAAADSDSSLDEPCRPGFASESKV
monoamine oxidase MAO-A, sequence (P21397 whole entry): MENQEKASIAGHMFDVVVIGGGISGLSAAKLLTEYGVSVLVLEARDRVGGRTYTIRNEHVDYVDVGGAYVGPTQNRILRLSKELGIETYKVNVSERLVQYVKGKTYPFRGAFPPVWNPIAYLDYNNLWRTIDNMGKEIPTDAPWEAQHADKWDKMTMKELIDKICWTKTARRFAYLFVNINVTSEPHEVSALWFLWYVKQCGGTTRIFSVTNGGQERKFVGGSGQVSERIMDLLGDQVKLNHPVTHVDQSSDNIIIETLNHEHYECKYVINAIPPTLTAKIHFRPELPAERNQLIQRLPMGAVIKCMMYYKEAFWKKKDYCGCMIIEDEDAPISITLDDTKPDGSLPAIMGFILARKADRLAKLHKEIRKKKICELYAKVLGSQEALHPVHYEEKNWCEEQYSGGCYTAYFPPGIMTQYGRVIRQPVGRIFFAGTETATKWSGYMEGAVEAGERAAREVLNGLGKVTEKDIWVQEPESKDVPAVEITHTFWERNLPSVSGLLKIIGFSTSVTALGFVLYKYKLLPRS
Muscarinic acetylcholine receptor M2 (Homo sapiens), sequence (P08172 whole entry): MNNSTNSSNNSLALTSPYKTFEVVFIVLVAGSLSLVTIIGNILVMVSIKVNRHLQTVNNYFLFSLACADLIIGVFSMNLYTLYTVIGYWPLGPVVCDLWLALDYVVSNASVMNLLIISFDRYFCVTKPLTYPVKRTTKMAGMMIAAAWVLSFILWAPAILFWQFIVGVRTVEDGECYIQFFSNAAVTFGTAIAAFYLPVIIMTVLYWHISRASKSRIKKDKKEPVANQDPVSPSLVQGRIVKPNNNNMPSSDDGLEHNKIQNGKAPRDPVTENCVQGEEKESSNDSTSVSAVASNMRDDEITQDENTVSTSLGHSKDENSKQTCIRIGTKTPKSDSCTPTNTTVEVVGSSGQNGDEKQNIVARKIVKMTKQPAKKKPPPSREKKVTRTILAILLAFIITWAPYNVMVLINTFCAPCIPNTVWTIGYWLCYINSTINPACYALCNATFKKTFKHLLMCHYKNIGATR
D(1B) dopamine receptor (Homo sapiens), sequence (P21918 whole entry): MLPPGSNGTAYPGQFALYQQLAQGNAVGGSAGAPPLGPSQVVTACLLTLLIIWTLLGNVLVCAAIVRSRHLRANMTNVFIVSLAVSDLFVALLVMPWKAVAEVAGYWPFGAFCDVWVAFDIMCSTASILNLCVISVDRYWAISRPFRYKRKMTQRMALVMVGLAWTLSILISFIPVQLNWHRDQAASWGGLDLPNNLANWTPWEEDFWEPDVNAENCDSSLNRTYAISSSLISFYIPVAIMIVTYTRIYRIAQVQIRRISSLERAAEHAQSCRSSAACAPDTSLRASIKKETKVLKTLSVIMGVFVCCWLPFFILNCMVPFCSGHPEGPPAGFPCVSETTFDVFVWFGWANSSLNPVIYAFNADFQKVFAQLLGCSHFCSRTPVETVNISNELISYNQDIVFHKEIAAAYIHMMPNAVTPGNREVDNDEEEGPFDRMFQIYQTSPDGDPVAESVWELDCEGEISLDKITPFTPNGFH

`N#CC1(c2ccccn2)CCN(Cc2cc(C(=O)N3CCCC3)c(=O)n3ccccc23)CC1` was tested, and the inhibition [1] was -3.26%.
For `N#CC1(c2ccccn2)CCN(Cc2cc(C(=O)O)c(=O)n3ccccc23)CC1` [MSD-M1PAM], the Ki [2] was 10 µM, the inhibition [3] was -3% and the inhibition [4] was -3%. The inhibition [5] was 7%, the inhibition [6] was 11% and the inhibition [7] was -5%. For the same compound, the inhibition at 60 min, 10 µM [8] was 12% (not active), the inhibition [9] was -5% and the inhibition [10] was 1%. The inhibition [11] was 9%, the inhibition [12] was 6% and the inhibition [13] was 9%. For the same compound, the inhibition [14] was 13%, the inhibition [15] was -7% and the inhibition [16] was 5%. It also gave an inhibition [17] of 45%, an inhibition [18] of 12% and an inhibition [19] of 28%. It also gave an IC50 [20] of 91.5 µM, an inhibition ([20]; Compound concentration 0.1 uM) of -9% and an inhibition ([20]; Compound concentration 1.0 uM) of -3%. It also gave an inhibition ([20]; Compound concentration 10.0 uM) of 11%, an inhibition ([20]; Compound concentration 100.0 uM) of 52% and an inhibition [21] of -4%. For the same compound, the inhibition [22] was -3%, the inhibition [23] was 3% and the inhibition [24] was -5%. It also gave an inhibition [25] of 9%, an inhibition [26] of -7.39% and an inhibition [27] of -2.87%. It also gave an inhibition [28] of -8.07%, an inhibition [29] of -5.73% and an inhibition [30] of 6%. For the same compound, the inhibition [31] was 2%, the inhibition [32] was -2% and the inhibition [33] was 8%. The inhibition [34] was -5%, the inhibition [35] was 3% and the inhibition [36] was 0%.
